Assay results: patent US8133849B2, “Herbicidal compounds” (Syngenta Limited, priority 2007, dated 2012)

How the values were obtained:
Format in all cases: in vivo
[1] = tested on: test plants; assay: Example B2 herbicidal action, post-emergence, pots in glasshouse, damage score 0-10 (10=total damage to plant; 0=no damage to plant); settings: Example B2 protocol, after 13 days, result in words
Method: Seeds of a variety of test species were sown in standard soil in pots. After 8 days cultivation (post-emergence) under controlled conditions in a glasshouse (at 24/16° C., day/night; 14 hours light; 65% humidity), the plants were sprayed with an aqueous spray solution derived from the formulation of the technical active ingredient in acetone/water (50:50) solution containing 0.5% Tween 20 (polyoxyethelyene sorbitan monolaurate, CAS RN 9005-64-5). The test plants were then grown in a glasshouse under controlled conditions in a glasshouse (at 24/16° C., day/night; 14 hours light; 65% humidity) and watered twice daily. After 13 days, the test was evaluated (10=total damage to plant; 0=no damage to plant).

[2] = tested on: Nasturtium officinale; assay: Example B1 herbicidal action, post-emergence, seed trays in climatic chamber, damage score 0-10; settings: 1000 g/ha, evaluated after 9 days, 10=total damage to plant, 0=no damage to plant
Method: (§1) Seeds of a variety of test species were sown in sterilized standard soil in seed trays each having 96 cells. After cultivation for 8 to 9 days cultivation (post-emergence) under controlled conditions in a climatic chamber (cultivation at 23/17° C., day/night; 13 hours light; 50-60% humidity), the plants were treated with an aqueous spray solution of 1000 mg/l of the active ingredient dissolved in 10% DMSO (dimethyl sulfoxide, CAS RN 67-68-5) as a solvent, equivalent to 1000 g/ha. The plants were grown in the climatic chamber after application at (24/19° C., day/night; 13 hours light; 50-60% humidity) and watered twice daily. After 9 days until the test was evaluated (10=total damage to plant, 0=no damage to plant)

[3] = tested on: Solanum nigrum; assay: as above; settings: 1000 g/ha, evaluated after 9 days, 10=total damage to plant, 0=no damage to plant
Method: as §1

[4] = tested on: Amaranthus retroflexus; assay: as above; settings: 1000 g/ha, evaluated after 9 days, 10=total damage to plant, 0=no damage to plant
Method: as §1

[5] = tested on: Stellaria media; assay: as above; settings: 1000 g/ha, evaluated after 9 days, 10=total damage to plant, 0=no damage to plant
Method: as §1

[6] = tested on: test plants; assay: Example B1 herbicidal action, post-emergence, all test species together; settings: Example B1 protocol, 1000 g/ha, after 9 days, result in words
Method: as §1

[7] = tested on: Solanum nigrum; assay: Example B2 herbicidal action, post-emergence, pots in glasshouse, damage score 0-10; settings: application post-emergence, rate 1000 g/ha, evaluated after 13 days
How it was run: (§2)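 Seedlings grown 8 days in a controlled glasshouse received a foliar spray of the compound formulated in 50:50 acetone/water plus 0.5% Tween 20; plant damage was assessed 13 days afterward.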

[8] = tested on: Amaranthus retroflexus; assay: as above; settings: application post-emergence, rate 1000 g/ha, evaluated after 13 days
How it was run: as §2

[9] = tested on: Echinochloa crus-galli; assay: as above; settings: application post-emergence, rate 1000 g/ha, evaluated after 13 days
How it was run: as §2

[10] = tested on: Ipomea hederaceae; assay: as above; settings: application post-emergence, rate 1000 g/ha, evaluated after 13 days
How it was run: as §2

[11] = tested on: Setaria faberi; assay: as above; settings: application post-emergence, rate 1000 g/ha, evaluated after 13 days
How it was run: as §2

Row | SMILES | damage to plant, NAAOF [2] | damage to plant, SOLNI [3] | damage to plant, AMARE [4] | damage to plant, STEME [5] | also measured
1 | CCN1c2nccnc2C(OC(=O)C(C)(C)C)=C(c2ccc(Cl)c(Cl)c2)S1(=O)=O [Compound C10] |  |  |  |  | damage to the test plants [1]: little or no damage
2 | CN1c2nccnc2C(OC(=O)C(C)(C)C)=C(c2c(F)ccc(F)c2Cl)S1(=O)=O [Compound C4] | 6 | 5 | 7 | 8 | 
3 | CCN1c2nccnc2C(OC(=O)C(C)C)=C(c2ccc(Cl)cc2Cl)S1(=O)=O [Compound C6] | 8 | 7 | 0 | 8 | 
4 | COC1=C(c2cc3ccccc3nc2Cl)S(=O)(=O)N(C)c2nccnc21 [Compound C40] | 0 | 0 | 0 | 1 | 
5 | CCN1c2nccnc2C(OC(=O)C(C)(C)C)=C(c2ccc(Cl)cc2Cl)S1(=O)=O [Compound C5] | 8 | 1 | 5 | 7 | 
6 | CN1c2nccnc2C(OC(=O)C(C)(C)C)=C(c2ccc(Cl)cc2Cl)S1(=O)=O [Compound C2] | 4 | 0 | 3 | 6 | 
7 | CC(C)C(=O)OC1=C(c2c(F)ccc(F)c2Cl)S(=O)(=O)N(C)c2nccnc21 [Compound C9] | 6 | 4 | 7 | 6 | 
8 | CC(C)(C)C(=O)OC1=C(c2ccc(Cl)cc2Cl)S(=O)(=O)Nc2nccnc21 [Compound B1] | 0 | 2 | 0 | 0 | 
9 | CN1c2nccnc2C(O)=C(c2ccc(Cl)cc2Cl)S1(=O)=O [Compound D1] | 7 | 0 | 0 | 8 | 
10 | CC(C)(C)C(=O)OC1=C(c2ccc(Cl)c(Cl)c2)S(=O)(=O)Nc2nccnc21 [Compound B4] |  |  |  |  | damage to the test plants [6]: little or no damage
11 | CC(C)C(=O)OC1=C(c2ccc(Cl)cc2Cl)S(=O)(=O)Nc2nccnc21 [Compound B2] |  |  |  |  | damage to the test plants [6]: little or no damage
12 | CCN1c2nccnc2C(OC(=O)C(C)(C)C)=C(c2c(F)ccc(F)c2Cl)S1(=O)=O [Compound C7] | 8 | 7 | 3 | 8 | 
13 | C#CCN1c2nccnc2C(O)=C(c2ccccc2[N+](=O)[O-])S1(=O)=O [Compound D40, 3-(2-nitro-phenyl)-2,2-dioxo-1-prop-2-ynyl-1,2-dihydro-2-λ-6-thia-1,5,8-triaza-naphthalen-4-ol] |  |  |  |  | damage to the test plants [1]: little or no damage
14 | CN1c2nccnc2C(OC(=O)C(C)(C)C)=C(c2cc3ccccc3nc2Cl)S1(=O)=O [Compound C41] | 8 | 0 | 0 | 4 | 
15 | CC(C)(C)C(=O)OC1=C(c2ccccc2[N+](=O)[O-])S(=O)(=O)N(CC(F)F)c2nccnc21 [Compound C66] |  |  |  |  | damage to the test plants [1]: little or no damage
16 | CC(C)(C)C(=O)OC1=C(c2c(F)ccc(F)c2Cl)S(=O)(=O)Nc2nccnc21 [Compound B3, 2,2-dimethyl-propionic acid-3-(2-chloro-3,6-difluoro-phenyl)-2,2-dioxo-1,2-dihydro-2-λ-6-thia-1,5,8-triaza-naphthalen-4-yl ester] | 0 | 2 | 0 | 0 | 
17 | CN1c2nccnc2C(O)=C(c2c(F)ccc(F)c2Cl)S1(=O)=O [Compound D2] | 7 | 7 | 7 | 7 | 
18 | CN1c2nccnc2C(OC(=O)C2CC2)=C(c2ccc(Cl)cc2Cl)S1(=O)=O [Compound C1] | 4 | 3 | 0 | 6 | 
19 | COC1=C(c2ccc(Cl)cc2Cl)S(=O)(=O)N(C)c2nccnc21 [Compound C3, 3-(2,4-dichloro-phenyl)-4-methoxy-1-methyl-1H-2-thia-1,5,8-triazanaphthalen-2,2-dioxide] | 2 | 3 | 1 | 2 | 
20 | CN1c2nccnc2C(OC(=O)C(C)(C)C)=C(c2ccc(Cl)c(Cl)c2)S1(=O)=O [Compound C8] | 0 | 7 | 2 | 0 | 
21 | CCOC(=O)c1ccc(C(F)(F)F)nc1C1=C(O)c2nccnc2N(CCC(F)F)S1(=O)=O [Compound D58, 2-[1-(3,3-difluoro-propyl)-4-hydroxy-2,2-dioxo-1,2-dihydro-2-λ-6-thia-1,5,8-triaza-naphthalen-3-yl]-6-trifluoromethyl-nicotinic acid ethyl ester] |  |  |  |  | damage to the test plants [1]: little or no damage
22 | C#CCN1c2nccnc2C(OC(=O)SCC)=C(c2c(Cl)ccc(Cl)c2C(F)(F)F)S1(=O)=O [Compound C85] |  |  |  |  | SOLNI damage score (10=total damage to plant; 0=no damage to plant) [7]: 10; AMARE damage score (10=total damage to plant; 0=no damage to plant) [8]: 7; ECHCG damage score (10=total damage to plant; 0=no damage to plant) [9]: 7; IPOHE damage score (10=total damage to plant; 0=no damage to plant) [10]: 9; SETFA damage score (10=total damage to plant; 0=no damage to plant) [11]: 6
23 | CC(C)C(=O)OC1=C(c2ccccc2Br)S(=O)(=O)N(CC(F)F)c2nccnc21 [Compound C39] |  |  |  |  | SOLNI damage score (10=total damage to plant; 0=no damage to plant) [7]: 10; AMARE damage score (10=total damage to plant; 0=no damage to plant) [8]: 9; ECHCG damage score (10=total damage to plant; 0=no damage to plant) [9]: 4; IPOHE damage score (10=total damage to plant; 0=no damage to plant) [10]: 9; SETFA damage score (10=total damage to plant; 0=no damage to plant) [11]: 4
24 | CC(C)C(=O)OC1=C(c2c(Br)cccc2Br)S(=O)(=O)N(CC(F)F)c2nccnc21 [Compound C49] |  |  |  |  | SOLNI damage score (10=total damage to plant; 0=no damage to plant) [7]: 9; AMARE damage score (10=total damage to plant; 0=no damage to plant) [8]: 9; ECHCG damage score (10=total damage to plant; 0=no damage to plant) [9]: 8; IPOHE damage score (10=total damage to plant; 0=no damage to plant) [10]: 9; SETFA damage score (10=total damage to plant; 0=no damage to plant) [11]: 6
25 | O=S1(=O)C(c2cc(C(F)(F)F)ccc2Br)=C(O)c2nccnc2N1CC(F)F [Compound D30] |  |  |  |  | SOLNI damage score (10=total damage to plant; 0=no damage to plant) [7]: 10; AMARE damage score (10=total damage to plant; 0=no damage to plant) [8]: 10; ECHCG damage score (10=total damage to plant; 0=no damage to plant) [9]: 6; IPOHE damage score (10=total damage to plant; 0=no damage to plant) [10]: 10; SETFA damage score (10=total damage to plant; 0=no damage to plant) [11]: 3
26 | Cc1ccc(C(F)(F)F)c(C2=C(O)c3nccnc3N(CC(F)F)S2(=O)=O)c1 [Compound D41] |  |  |  |  | SOLNI damage score (10=total damage to plant; 0=no damage to plant) [7]: 10; AMARE damage score (10=total damage to plant; 0=no damage to plant) [8]: 9; ECHCG damage score (10=total damage to plant; 0=no damage to plant) [9]: 1; IPOHE damage score (10=total damage to plant; 0=no damage to plant) [10]: 9; SETFA damage score (10=total damage to plant; 0=no damage to plant) [11]: 2
27 | CCN1c2nccnc2C(OC(=O)C(C)(C)C)=C(c2cccc(C(F)(F)F)c2)S1(=O)=O [Compound C14] |  |  |  |  | damage to the test plants [1]: little or no damage
